In patent publication US20060293288A1, “Use of resolvins to treat gastrointestinal diseases” (priority 2005, published 2006):
Entries after “also recorded” stand apart in the source; their conditions may differ.

Experiments:
[1] = system: leukocyte infiltration in zymosan-induced peritonitis; experiment: zymosan-induced peritonitis, leukocyte (PMN) infiltration; assay type: in vivo, mice; details: for relative potency in the peritonitis model: compared with RvE1 or indomethacin; for effect on PMN infiltration/migration into the peritoneum (in words): peritonitis model, mice
Protocol: FIG. 1. (A) Inflammatory exudates from mice treated with EPA and aspirin generate RvE1 in vivo. (B) Inhibition of leukocyte infiltration in zymosan-induced peritonitis treated with EPA and aspirin. Mice were pre-treated for 30 min by aspirin (0.5 mg) intraperitoneally followed by EPA (0.3 mg) and zymosan. Peritoneal lavages were collected at 2 h and cells were enumerated. (n=4, *p<0.05 compared with vehicle control, **p<0.05 compared with aspirin alone). (C) Inhibition of leukocyte infiltration in zymosan-induced peritonitis. RvE1 (100 ng) was injected intravenously into tail veins followed by zymosan A into the peritoneum. Mice were sacrificed, and peritoneal lavages were collected (2 h) and cells enumerated (n=3, *p<0.01 compared with vehicle control).
Inflammatory exudates were initiated with intraperitoneal injection of 1 ml zymosan A (1 mg/ml) with 6-8-wk-old male FvB mice. Mice were pre-treated by aspirin (0.5 mg) i.p. followed by EPA (0.3 mg) and zymosan. Peritoneal lavages were collected at 2 h and cells were enumerated. Cell-free exudates were extracted by C18 solid phase extraction with deuterium-LTB4 (Cascade, UK) as an internal standard for LC-UV-MS/MS analysis using a Finnigan LCQ liquid chromatography ion trap tandem mass spectrometer equipped with a LUNA C18-2 (100×2 mm×5 μm) column and UV diode array detector using mobile phase (methanol:water:acetate at 65:35:0.01) from 0 to 8 min, ramped to methanol 8 to 30 min, with a 0.2 ml/min flow rate.

[2] = system: dextran sodium sulfate (DSS)-induced colitis; details: cited from earlier work
[3] = system: TNBS-induced colitis; experiment: grading of histologic change of the colon in TNBS colitis; assay type: in vivo, BALB/c mice; details: day 4, 1.0 μg/mouse i.p.
Protocol: FIG. 3. Colon histopathology from RvE1 or ATLa-treated mice. Colon section of vehicle-treated mouse (A), 4 days after the induction of colitis by TNBS (B), mice received RvE1 (C) and ATLa (D). (E) Histological scores of the colon of mice receiving vehicle, TNBS only, TNBS plus RvE1, or TNBS plus ATLa. *p<0.05 and **p<0.01, respectively.
To generate a more chronic T cell-mediated inflammation, BALB/c mice were sensitized with 150 μl of the haptenating agent 2,4,6-trinitrobenzene sulfonic acid (TNBS; Sigma-Aldrich, St. Louis, Mo.) of 2.5% in 50% ethanol by skin painting on day −7. On day 0, 150 μl of 1% TNBS in 50% ethanol was administered intrarectally via a 3.5 F catheter under anesthesia with tribromoethanol. To ensure distribution of the TNBS within the entire colon and cecum, mice were held in a vertical position for 1 min after the instillation. On day 4, mice were killed and immunopathologic characterization was performed as previously described (23).
The degree of inflammation on microscopic cross sections of the colon was graded semi quantitatively. Severity of colitis was assessed based on five histologic criteria, each graded on a […] (0=absent, 1=mild, 2=moderate, 3=severe): mononuclear inflammation, neutrophilic infiltration/crypt abscesses, crypt hyperplasia, mucosal injury/ulceration, and mucosal hypervascularity. The five scores were summed to give a total score. […]

[4] = system: anti-TNBS IgG; experiment: detection of TNP-specific antibodies in serum with ELISA; assay type: in vivo, mice; details: day 4
Text: (§1) FIG. 4. RvE1 reduces leukocyte infiltration and pro-inflammatory mediators in colitis. (A) Myeloperoxidase (MPO) activity of colons of mice treated with TNBS alone or mice given RvE1. *p<0.0001 versus mice treated with TNBS alone. (B) Anti-TNBS IgG level in serum on day 4 from mice treated with TNBS alone or receiving RvE1 as noted. *p<0.01. (C) Quantitative real time PCR analysis of mRNA expression of inflammatory mediators in colons obtained on day 4 from control mice (white column), mice treated with TNBS alone (black column) or receiving TNBS plus RvE1 (gray column). *p<0.01.
Sera were collected on day 4, and anti-trinitrophenyl residue (TNP) antibodies were determined by ELISA as previously described with a minor modification (25). Briefly, 100 mg of OVA was dissolved in 4 ml of 0.05M carbonate-bicarbonate buffer at pH 9.6 followed by adding 1 ml of TNBS 5% solution and incubating for 2 h at room temperature. TNP-OVA was dialyzed in PBS and then stored at −80° C. until use. For the detection of TNP-specific antibodies, TNP-OVA was dissolved at the concentration of 0.1 mg/ml in 0.05M carbonate-bicarbonate buffer at pH 9.6 and 100 μl was placed in each well of 96-well microtiter plates for coating. After blocking with 1% bovine serum albumin in PBS, plates were incubated with appropriately diluted serum. […]

[5] = system: TNBS-induced colitis; experiment: TNBS-induced colitis (mortality, body weight, colon macroscopy); assay type: in vivo, BALB/c mice
Protocol: (C) Macroscopic appearance of the colon of mice receiving vehicle, TNBS only, or mice receiving RvE1 (0.05 mg/kg).
RvE1 was administered intraperitoneally (1.0 μg/mouse; 50 μg/kg) on the indicated days before the induction of colitis (prevention mode). Aspirin-triggered lipoxin A4 analog (ATLa; 15-epi-16-(p-fluoro)phenoxy-LXA4) was given at the same dose as a direct comparison with RvE1.

[6] = system: mRNA expression of inflammatory mediators in colons; experiment: quantitative real-time PCR of inflammatory mediators in colon; assay type: in vivo, mice; details: day 4, TNBS colitis
Text: as §1
Total RNA from colon was prepared using Trizol™ reagent (Life Technologies, Rockville, Md.). Real-time PCR was performed using the LightCycler FastStart DNA Master SYBR Green I (Roche Diagnostics GmbH, Mannheim, Germany) according to manufacturer's protocol. Primers for IFN-γ, IL-12p40, TNF-α, IL-4, TGF-β, IL-10, iNOS and glyceraldehyde-3-phosphate dehydrogenase (GAPDH) were designed as described (26). Primers for COX-2 were designed as follows: 5′-[…]-3′ and 5′-[…]-3′. Quantities of specific mRNA in the sample were measured according to the corresponding gene-specific standard curve. The relative expression of each gene was normalized against the housekeeping gene GAPDH.

[7] = system: Myeloperoxidase (MPO) activity of colons; experiment: myeloperoxidase (MPO) assay of colon tissue in TNBS colitis; assay type: in vivo, mice; details: versus control vehicle
Text: as §1
Each tissue sample was assessed for PMN content and infiltration. Tissues were homogenized in potassium phosphate buffer (pH 6.0) containing 0.5% hexadecyltrimethylammonium bromide, followed by three cycles of sonication and freeze-thawing. The particulate matter was removed by centrifugation (16,000 g for 20 min), and 75 μl of supernatant was added to 925 μl of potassium phosphate buffer (pH 6.0) containing 0.2 mg/ml o-dianisidine dihydrochloride (Sigma, St. Louis, Mo.) and 0.0006% hydrogen peroxide. Changes in OD were monitored at 460 nm at 25° C., at 30- and 90-s intervals. Calibration curve for conversion of MPO activities to PMN number was performed as in ref. 24.

[8] = system: gastric damage; details: induced by dextran sodium sulfate or aspirin; cited from earlier work

## CCC(O)/C=C/C=C\C/C=C\C/C=C\C=C\[C@@H](O)CCCC(=O)O (mixture of isomers) [5S,18(+/−)-diHEPA]
[1]
  relative potency in the peritonitis model: equipotent to Resolvin E1
  effect on PMN infiltration/migration into the peritoneum (in words): downregulation of PMN infiltration

## COc1ccc2c(c1)c(CC(=O)O)c(C)n2C(=O)c1ccc(Cl)cc1 [indomethacin, reference compound]
[1]; zymosan peritonitis, dose not given
  reduction of leukocyte numbers in the exudate: approximately 20%

## CC/C=C\C[C@H](O)/C=C/C=C\C=C\[C@@H](O)C/C=C\CC#CCCC(=O)O [4,5-dehydro 10,17S-dihydroxy DHA]
[1]; 100 ng dose, murine zymosan A-induced peritonitis
  inhibition of the PMN infiltration: 40%

## CC[C@@H](O)/C=C/C=C\C/C=C\C/C=C\C/C=C\CCCC(=O)O [18R-HEPE, reference compound]
[1]
  relative potency in the peritonitis model: much less potent

## O=C(O)CCC[C@H](O)[C@H](O)/C=C/C=C/C=C\C=C\[C@H](O)COc1ccc(F)cc1 [ATLa, 15-epi-16-(p-fluoro)phenoxy-LXA4, reference compound]
[2]
  protection against DSS-induced colitis: protective
[3]
  histologic features of colitis: dramatic protection

## CC[C@@H](O)/C=C/C=C\C[C@@H](O)/C=C/C=C/C=C\[C@@H](O)CCCC(=O)O [RvE1, 5S,12R,18R-trihydroxy-6Z,8E,10E,14Z,16E-eicosapentaenoic acid]
[1]; 100 ng/mouse intravenously, zymosan peritonitis, lavage at 2 h
  reduction of leukocyte infiltration: 50%
[1]
  relative potency in the peritonitis model: more potent than indomethacin
[4]
  serum anti-TNBS IgG level: decreased
[5]; 0.05 mg/kg
  protection against the development of TNBS colitis: complete protection
[5]; RvE1 1.0 μg/mouse (0.05 mg/kg) i.p., TNBS alone 62.5%
  overall mortality: 25%
[5]; RvE1 1 μg/mouse or 0.05 mg/kg, versus TNBS with vehicle
  body weight loss: less weight loss
[5]; RvE1 0.05 mg/kg
  shortening and thickening of the colon: did not exhibit significant shortening and thickening of the colon
[5]; versus non-treated mice
  survival rate: significantly higher
[6]
  COX-2 mRNA level in colon: significant reduction
  IFN-γ mRNA level in colon: direct effects were not observed
  IL-4 mRNA level in colon: direct effects were not observed
  IL-10 mRNA level in colon: direct effects were not observed
  IL-12p40 mRNA level in colon: significant reduction
  TGF-β mRNA level in colon: did not show significant differences
[6]; 0.05 mg/kg
  TNF-α mRNA level in colon: significant reduction; also recorded: dramatic decrease
  iNOS mRNA level in colon: significant reduction; also recorded: dramatic decrease
[7]
  myeloperoxidase (MPO) activity in colon: significantly lower levels
[3]
  histologic features of colitis: less severe histologic features of colitis

## CCCCC[C@@H](O)/C=C/C=C\C=C\C=C\[C@@H](O)[C@@H](O)CCCC(=O)O [15-epi-lipoxin A4]
[8]
  protection against gastric damage: protective

## CC/C=C\C[C@H](O)/C=C/C=C/C=C/C(O)C/C=C\C/C=C\CCC(=O)O (stereo partly drawn) [10,17 di-HDHA, 10,17S-dihydroxy-docosa-4Z,7Z,11E,13,15E,19Z-hexaenoic acid]
[1]
  effect on PMN infiltration/migration into the peritoneum (in words): inhibited both PMN migration into the peritoneum
